For the experiment, the target named is T1, cyclic GMP specific phosphodiesterase (PDE 5) (Homo sapiens, UniProt O76074).
T1 construct: was isolated from human platelet lysates by ion exchange chromatography using a Mono-Q column; from tissue; host or cells: human platelets (lysate, Mono-Q ion exchange fraction)
Nature of the experiment: PDE 5 inhibition, enzyme isolated from human platelet lysates, [3H]-cyclic GMP substrate. Type of experiment: biochemical. The conditions noted are these: enzyme from human platelet lysates (Mono-Q); 0.25 mM [3H]-cyclic GMP as substrate; read-out: IC50 PDE5. How it is done: The cyclic GMP specific phosphodiesterase (PEE 5) was isolated from human platelet lysates by ion exchange chromatography using a Mono-Q column. The enzyme activity was determined using 0.25 mM [3H]-cyclic GMP as substrate. The purification of the enzyme and the assessment of the PDE 5 inhibitory activity of our compounds were performed essentially as described by Gristwood et al., Br. J. Pharmacol. 1992, 105, 985–991.
On to `CCCOc1ccc(S(=O)(=O)NC2CC(C)(C)NC(C)(C)C2)cc1-c1[nH]c2c(c1Cl)n(CCC)c(=O)n1cnnc21` [Example 41, 3-(7-Chloro-5-oxo-6-propyl-6,9-dihydro-5H-pyrrolo[2,3-e][1,2,4]triazolo[4,3-c]pyrimidin-8-yl)-4-propoxy-N-(2,2,6,6-tetramethylpiperidin-4-yl)benzenesulfonamide], for which the half-inhibitory concentration (IC50) (commonly the point on the concentration scale where inhibition reaches its midpoint) was determined as 0.17 nM. The result for `CCCOc1ccc(S(=O)(=O)N2CCN(CCCO)CC2)cc1-c1[nH]c2c(c1Cl)n(CCC)c(=O)n1cnnc21` [Example 34, 7-Chloro-8-{5-[4-(3-hydroxypropyl)piperazine-1-sulfonyl)-2-propoxyphenyl]-6-propyl-6,9-dihydro-5H-pyrrolo[2,3-e][1,2,4]triazolo[4,3-c]pyrimidine-5-one] reads 0.22 nM. On to `CCCOc1ccc(S(=O)(=O)N2CCN(CCO)CC2)cc1-c1[nH]c2c(c1Br)n(CCC)c(=O)n1cnnc21` [Example 73, 7-Bromo-8-{5-[4-(2-hydroxyethyl)piperazine-1-sulfonyl]-2-propoxyphenyl}-6-propyl-6,9-dihydro-5H-pyrrolo[2,3-e][1,2,4]triazolo[4,3-c]pyrimidine-5-one], for which the half-inhibitory concentration (IC50) was determined as 0.33 nM. `CCCOc1ccc(S(=O)(=O)N2CCNCC2)cc1-c1[nH]c2c(c1Br)n(CCC)c(=O)n1cnnc21` [Example 74, 7-Bromo-8-[5-(piperazine-1-sulfonyl)-2-propoxyphenyl]-6-propyl-6,9-dihydro-5H-pyrrolo[2,3-e][1,2,4]triazolo[4,3-c]pyrimidine-5-one]: the IC50 came to 0.25 nM. As for `CCCOc1ccc(S(=O)(=O)NCCO)cc1-c1[nH]c2c(c1Cl)n(CCC)c(=O)n1cnnc21` [Example 50, 3-(7-Chloro-5-oxo-6-propyl-6,9-dihydro-5H-pyrrolo[2,3-e][1,2,4]triazolo[4,3-c]pyrimidin-8-yl)-N-(2-hydroxyethyl)-4-propoxybenzenesulfonamide], the half-maximal inhibitory concentration (IC50) turned out to be 0.15 nM. As to `CCCn1c(=O)n2cnnc2c2[nH]c(-c3cc(S(=O)(=O)N4CCCN(C)CC4)ccc3OCC)c(Cl)c21` [Example 11, 7-Chloro-8-[2-ethoxy-5-(4-methyl-[1,4]diazepane-1-sulfonyl)phenyl]-6-propyl-6,9-dihydro-5H-pyrrolo[2,3-e][1,2,4]triazolo[4,3-c]pyrimidine-5-one], the IC50 amounted to 0.099 nM. The result for `C=CCN1CCN(S(=O)(=O)c2ccc(OCCC)c(-c3[nH]c4c(c3Cl)n(CCC)c(=O)n3cnnc43)c2)CC1` [Example 45, 8-[5-(4-Allylpiperazine-1-sulfonyl)-2-propoxyphenyl]-7-chloro-6-propyl-6,9-dihydro-5H-pyrrolo[2,3-e][1,2,4]triazolo[4,3-c]pyrimidine-5-one] reads 0.21 nM; that for `CCCn1c(=O)n2cnnc2c2[nH]c(-c3cc(S(=O)(=O)N4C[C@@H]5C[C@H]4CN5C)ccc3OCC)c(Cl)c21` [Example 79, 7-Chloro-8-[2-ethoxy-5-((1S, 4S)-5-methyl-2,5-diazabicyclo[2.2.1]heptane-2-sulfonyl)phenyl]-6-propyl-6,9-dihydro-5H-pyrrolo[2,3-e][1,2,4]triazolo[4,3-c]pyrimidine-5-one], 0.19 nM.

Take `CCCOc1ccc(S(=O)(=O)N2CCN(C)CC2)cc1-c1[nH]c2c(c1Br)n(CCC)c(=O)n1cnnc21` [Example 58, 7-Bromo-8-[5-(4-methylpiperazine-1-sulfonyl)-2-propoxyphenyl]-6-propyl-6,9-dihydro-5H-pyrrolo[2,3-e][1,2,4]triazolo[4,3-c]pyrimidine-5-one]: the concentration for half-maximal inhibition (IC50) came to 0.3 nM. For `CCCn1c(=O)n2cnnc2c2[nH]c(-c3cc(S(=O)(=O)N4CCN5CCC[C@H]5C4)ccc3OCC)c(Cl)c21` [Example 75, 7-Chloro-8-[2-ethoxy-5-((S)-hexahydropyrrolo[1,2-a]pyrazine-2-sulfonyl)phenyl]-6-propyl-6,9-dihydro-5H-pyrrolo[2,3-e][1,2,4]triazolo[4,3-c]pyrimidine-5-one], the half-maximal inhibitory concentration (IC50) stood at 0.19 nM.

Take `CCCOc1ccc(S(=O)(=O)N2CCCN(CCO)CC2)cc1-c1[nH]c2c(c1Br)n(CCC)c(=O)n1cnnc21` [Example 71, 7-Bromo-8-(5-[4-(2-Hydroxyethyl)-[1,4]diazepane-1-sulfonyl]-2-propoxyphenyl}-6-propyl-6,9-dihydro-5H-pyrrolo[2,3-e][1,2,4]triazolo[4,3-c]pyrimidine-5-one]: the IC50 stood at 0.12 nM. Regarding `CCCn1c(=O)n2cnnc2c2[nH]c(-c3cc(S(=O)(=O)N4CCN(CCOCC)CC4)ccc3OCC)c(Cl)c21` [Example 24, 7-Chloro-8-{2-ethoxy-5-[4-(2-ethoxyethyl)piperazine-1-sulfonyl]phenyl}-6-propyl-6,9-dihydro-5H-pyrrolo[2,3-e][1,2,4]triazolo[4,3-c]pyrimidine-5-one], the 50% inhibitory concentration (IC50) came to 0.042 nM.

The values are drawn from patent US7060824B2, “Pyrrolotriazolopyrimidinone derivatives” (Almirall Prodesfarma, S.A., priority 2000, dated 2006).
